Measured values reported in the supplement of paper PMC10307832.

Experiments:
Test in all cases: relative viability (nuclei count vs DMSO), 5 days (fraction); higher = more cells survive
BAY61-3606 + Pictilisib = compound: COC1=C(C=C(C=C1)C2=CC3=NC=CN3C(=N2)NC4=C(C=CC=N4)C(=O)N)OC [BAY61-3606] + CS(=O)(=O)N1CCN(Cc2cc3nc(-c4cccc5[nH]ncc45)nc(N4CCOCC4)c3s2)CC1 [Pictilisib] (partner 1 µM)
Method in brief: (§1)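 Relative viability divides the nuclei count in treated wells by that in vehicle wells. Lung cancer cell lines were seeded in 1536-well plates, dosed by pin tool the next day, and fixed and stained after 5 days in one step with final 0.05% Triton X-100, 1% formaldehyde and 1 ug/ml Hoechst. Dosing was a single drug or a fixed anchor-drug dose plus five library-drug doses (not always all listed) in √10 steps, and values are medians of duplicate plates imaged at 4×.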

Doxorubicin + Phenformin = compound: COc1cccc2c1C(=O)c1c(O)c3c(c(O)c1C2=O)C[C@@](O)(C(=O)CO)C[C@@H]3O[C@H]1C[C@H](N)[C@H](O)[C@H](C)O1 [Doxorubicin] + N=C(N)NC(=N)NCCc1ccccc1 [Phenformin] (partner 250 µM)
Method in brief: as §1

BAY61-3606 + Trametinib = compound: COC1=C(C=C(C=C1)C2=CC3=NC=CN3C(=N2)NC4=C(C=CC=N4)C(=O)N)OC [BAY61-3606] + CC(=O)Nc1cccc(-n2c(=O)n(C3CC3)c(=O)c3c(Nc4ccc(I)cc4F)n(C)c(=O)c(C)c32)c1 [Trametinib] (partner 0.02 µM)
Method in brief: as §1

BAY61-3606 + AZD7762 = compound: COC1=C(C=C(C=C1)C2=CC3=NC=CN3C(=N2)NC4=C(C=CC=N4)C(=O)N)OC [BAY61-3606] + NC(=O)Nc1cc(-c2cccc(F)c2)sc1C(=O)N[C@H]1CCCNC1 [AZD7762] (partner 0.2 µM)
Method in brief: as §1

| Cell Line | relative viability (BAY61-3606 + Pictilisib; first compound 0.02 µM) | relative viability (BAY61-3606 + Pictilisib; first compound 0.06325 µM) | relative viability (BAY61-3606 + Pictilisib; first compound 0.2 µM) | relative viability (BAY61-3606 + Pictilisib; first compound 0.6325 µM) | relative viability (BAY61-3606 + Pictilisib; first compound 2 µM) | relative viability (Doxorubicin + Phenformin; first compound 0.001 µM) | relative viability (Doxorubicin + Phenformin; first compound 0.003162 µM) | relative viability (Doxorubicin + Phenformin; first compound 0.01 µM) | relative viability (Doxorubicin + Phenformin; first compound 0.03162 µM) | relative viability (Doxorubicin + Phenformin; first compound 0.1 µM) | relative viability (BAY61-3606 + Trametinib; first compound 0.02 µM) | relative viability (BAY61-3606 + Trametinib; first compound 0.06325 µM) | relative viability (BAY61-3606 + Trametinib; first compound 0.2 µM) | relative viability (BAY61-3606 + Trametinib; first compound 0.6325 µM) | relative viability (BAY61-3606 + Trametinib; first compound 2 µM) | relative viability (BAY61-3606 + AZD7762; first compound 0.02 µM) | relative viability (BAY61-3606 + AZD7762; first compound 0.6325 µM) | relative viability (BAY61-3606 + AZD7762; first compound 2 µM) |
| --- | --- | --- | --- | --- | --- | --- | --- | --- | --- | --- | --- | --- | --- | --- | --- | --- | --- | --- |
| NCI-H520 | 0.316 | 0.32 | 0.329 | 0.261 | 0.317 | 0.626 | 0.531 | 0.611 | 0.465 | 0.347 | 0.685 | 0.704 | 0.751 | 0.85 | 0.644 | – | – | – |
| SK-LU-1 | 0.628 | 0.498 | 0.662 | 0.515 | 0.428 | 0.367 | 0.558 | 0.449 | 0.226 | 0.173 | 0.562 | 0.512 | 0.482 | 0.532 | 0.406 | – | – | – |
| COR-L23 | 0.933 | 0.871 | 0.866 | 0.871 | 0.449 | 0.422 | 0.501 | 0.43 | 0.224 | 0.131 | 0.725 | 0.668 | 0.635 | 0.751 | 0.558 | – | – | – |
| COR-L 105 | 0.505 | 0.385 | 0.434 | 0.373 | 0.346 | 0.57 | 0.533 | 0.434 | 0.295 | 0.286 | 0.474 | 0.414 | 0.463 | 0.429 | 0.436 | – | – | – |
| NCI-H1299 | 0.822 | 0.854 | 0.844 | 0.918 | 0.503 | – | – | – | – | – | – | – | – | – | – | – | – | – |
| NCI-H1703 | 0.27 | 0.233 | 0.241 | 0.256 | 0.214 | – | – | – | – | – | – | – | – | – | – | 0.119 | 0.108 | 0.137 |
